Results reported in ChEMBL document CHEMBL5137069, “Discovery of Potent and Orally Bioavailable Pyridine N-Oxide-Based Factor XIa Inhibitors through Exploiting Nonclassical Interactions” (J Med Chem, 2022).
In brackets after ≈: the same amount, converted by molar mass. One block for each molecule: values may come before it.

What was measured:
[1] = Stability in human liver microsomes assessed as half-life; assay type: ADME, Microsome
[2] = Stability in rat liver microsomes assessed as half-life; assay type: ADME, Microsome
[3] = Oral bioavailability in Sprague-Dawley rat at 10 mg/kg administered as PEG-400/water/EtOH (7:2:1) formulation; assay type: ADME, organism-based; details: in vivo
[4] = Volume of distribution at steady state in Sprague-Dawley rat at 10 mg/kg, po and 2 mg/kg, iv; assay type: ADME, organism-based; details: in vivo
[5] = Drug concentration in plasma of anesthetized New Zealand White rabbit model of AV shunt-induced thrombosis at 8.5 mg/kg, administered as iv bolus dose and subsequently followed by 10 mg/kg/hr as iv infusion from 20 min prior to 40 min after establishment of AV shunt by LC-MS/MS analysis; assay type: ADME, organism-based, Oryctolagus cuniculus; details: time 60 min
[6] = Half-life in Sprague-Dawley rat at 10 mg/kg, po and 2 mg/kg, iv; assay type: ADME, organism-based; details: in vivo
[7] = Equilibrium solubility of compound at pH 6.8 by HPLC analysis; assay type: physicochemical; details: buffer
[8] = AUC in Sprague-Dawley rat at 2 mg/kg, iv; assay type: ADME, organism-based; parameters: dose 2 mg/kg, route iv; details: in vivo
[9] = AUC in Cynomolgus monkey at 5 mg/kg, po; assay type: ADME, organism-based, Macaca fascicularis; parameters: dose 5 mg/kg, route po; details: in vivo
[10] = Volume of distribution at steady state in Cynomolgus monkey at 5 mg/kg, po and 1 mg/kg, iv; assay type: ADME, organism-based, Macaca fascicularis; details: in vivo
[11] = Drug concentration in plasma of anesthetized New Zealand White rabbit model of AV shunt-induced thrombosis at […], administered as iv bolus dose and subsequently followed by 0.8 mg/kg/hr as iv infusion from 20 min prior to 40 min after establishment of AV shunt by LC-MS/MS analysis; assay type: ADME, organism-based, Oryctolagus cuniculus; details: time 60 min
[12] = Clearance in Beagle dog assessed as liver blood flow at 5 mg/kg, po and 1 mg/kg, iv; assay type: ADME, organism-based, Canis lupus familiaris; details: in vivo
[13] = AUC in Cynomolgus monkey at 1 mg/kg, iv; assay type: ADME, organism-based, Macaca fascicularis; parameters: dose 1 mg/kg, route iv; details: in vivo
[14] = Clearance in Cynomolgus monkey assessed as liver blood flow at 5 mg/kg, po and 1 mg/kg, iv; assay type: ADME, organism-based, Macaca fascicularis; details: in vivo
[15] = Oral bioavailability in Beagle dog at 5 mg/kg; assay type: ADME, organism-based, Canis lupus familiaris; details: in vivo
[16] = Oral bioavailability in Cynomolgus monkey at 5 mg/kg; assay type: ADME, organism-based, Macaca fascicularis; details: in vivo
[17] = Half-life in Cynomolgus monkey at 5 mg/kg, po and 1 mg/kg, iv; assay type: ADME, organism-based, Macaca fascicularis; details: in vivo
[18] = Clearance in Sprague-Dawley rat assessed as liver blood flow at 10 mg/kg, po and 2 mg/kg, iv; assay type: ADME, organism-based; details: in vivo
[19] = AUC in Sprague-Dawley rat at 10 mg/kg, po; assay type: ADME, organism-based; parameters: dose 10 mg/kg, route po; details: in vivo
[20] = Equilibrium solubility of compound at pH 1.2 by HPLC analysis; assay type: physicochemical; details: buffer
[21] = Hal-life in Beagle dog at 5 mg/kg, po and 1 mg/kg, iv; assay type: ADME, organism-based, Canis lupus familiaris; details: in vivo
[22] = Volume of distribution at steady state in Beagle dog at 5 mg/kg, po and 1 mg/kg, iv; assay type: ADME, organism-based, Canis lupus familiaris; details: in vivo
[23] = Oral Bioavailability in Sprague-Dawley rat at 10 mg/kg; assay type: ADME, organism-based; details: in vivo
[24] = AUC in Beagle dog at 5 mg/kg, po; assay type: ADME, organism-based, Canis lupus familiaris; parameters: dose 5 mg/kg, route po; details: in vivo
[25] = AUC in Beagle dog at 1 mg/kg, iv; assay type: ADME, organism-based, Canis lupus familiaris; parameters: dose 1 mg/kg, route iv; details: in vivo
[26] = Oral bioavailability in Sprague-Dawley rat at 10 mg/kg administered as 20% HPbCD formulation; assay type: ADME, organism-based; details: in vivo

Structure (SMILES): COC(=O)Nc1ccc(-c2cnn([C@H](CC3CC3)c3ccc(-c4c(-n5cnnn5)ccc(Cl)c4F)c[n+]3[O-])c2)cc1
- bioavailability [3]: 59.6%

Structure (SMILES): Cc1nc(N)ccc1-c1cnn(C(CC2CC2)c2ccc(-c3c(-n4cnnn4)ccc(Cl)c3F)c[n+]2[O-])c1 (racemic)
- half-life [1]: 1.67 h
- half-life [2]: 1.8 h

Structure (SMILES): [O-][n+]1cc(-c2c(-n3cnnn3)ccc(Cl)c2F)ccc1C(CC1CC1)n1cc(-c2cncs2)cn1 (racemic)
- half-life [1]: 0.05 h
- half-life [2]: 0.117 h

Structure (SMILES): Cn1nncc1-c1cnn([C@H](Cc2ccc(F)cc2)c2ccc(-c3c(-n4cc(Cl)nn4)ccc(Cl)c3F)c[n+]2[O-])c1
- half-life [1]: 1.47 h
- half-life [2]: 1.28 h

Structure (SMILES): COC(=O)Nc1ccc(-c2cnn(C(CC3CC3)c3ccc(-c4cc(Cl)ccc4-n4cnnn4)c[n+]3[O-])c2)cc1 (racemic)
- bioavailability [26]: 37.3%

Structure (SMILES): Cc1ncsc1-c1cnn(C(CC2CC2)c2ccc(-c3c(-n4cnnn4)ccc(Cl)c3F)c[n+]2[O-])c1 (racemic)
- half-life [1]: 0.183 h
- half-life [2]: 0.3 h

Structure (SMILES): Nc1ccc(-c2cnn(C(CC3CC3)c3ccc(-c4c(-n5cnnn5)ccc(Cl)c4F)c[n+]3[O-])c2)c(F)n1 (racemic)
- half-life [1]: > 3 h
- half-life [2]: > 3 h

Structure (SMILES): Cn1nncc1-c1cnn([C@H](Cn2cc(F)cn2)c2ccc(-c3c(-n4cc(Cl)nn4)ccc(Cl)c3F)c[n+]2[O-])c1
- half-life [1]: > 3.08 h
- half-life [2]: 1.47 h

Structure (SMILES): [O-][n+]1cc(-c2c(-n3cnnn3)ccc(Cl)c2F)ccc1C(CC1CC1)n1cc(-c2c(F)cncc2Cl)cn1 (racemic)
- half-life [1]: 0.0333 h
- half-life [2]: 0.0333 h

Continued, values first:

- half-life [1]: > 3.08 h
- half-life [2]: 0.8 h
Structure (SMILES): Cn1nncc1-c1cnn([C@H](Cc2ccc(F)cc2)c2ccc(-c3c(-n4cnnn4)ccc(Cl)c3F)c[n+]2[O-])c1

- Vdss [4]: 0.8 L/kg
- concentration at 1 h [5]: 7.5 µM
- half-life [6]: 1.4 h
- solubility thermodynamic [7]: 172 µM (≈ 99.6 µg/mL)
- half-life [1]: > 3.08 h
- AUC [8]: 5.5 µM·h
- AUC [9]: 2.5 µM·h
- Vdss [10]: 1.5 L/kg
- concentration at 1 h [11]: 1.08 µM
- LBF [12]: 25%
- AUC [13]: 1.1 µM·h
- LBF [14]: 58%
- bioavailability [15]: 80.5%
- bioavailability [16]: 43%
- half-life [17]: 1 h
- LBF [18]: 12%
- AUC [19]: 10 µM·h
- solubility thermodynamic [20]: 81 µM (≈ 47 µg/mL)
- half-life [21]: 2 h
- Vdss [22]: 1.5 L/kg
- bioavailability [23]: 36.4%
- AUC [24]: 14.7 µM·h
- AUC [25]: 3.7 µM·h
- half-life [2]: > 3.08 h
Structure (SMILES): Cn1nncc1-c1cnn([C@H](CCOC(F)F)c2ccc(-c3c(-n4cc(Cl)nn4)ccc(Cl)c3F)c[n+]2[O-])c1

- half-life [1]: > 3.08 h
- half-life [2]: > 3.08 h
Structure (SMILES): Cn1nncc1-c1cnn([C@H](CCOC(F)F)c2ccc(-c3c(-n4cnnn4)ccc(Cl)c3F)c[n+]2[O-])c1

- half-life [1]: 2.83 h
- half-life [2]: 0.833 h
Structure (SMILES): COCC[C@H](c1ccc(-c2c(-n3cnnn3)ccc(Cl)c2F)c[n+]1[O-])n1cc(-c2cnnn2C)cn1

- half-life [1]: 0.267 h
- half-life [2]: 0.45 h
Structure (SMILES): Cn1nccc1-c1cnn(C(CC2CC2)c2ccc(-c3c(-n4cnnn4)ccc(Cl)c3F)c[n+]2[O-])c1 (racemic)

- half-life [1]: 0.6 h
- half-life [2]: 1.07 h
Structure (SMILES): Cn1cncc1-c1cnn([C@H](CC2CC2)c2ccc(-c3c(-n4cnnn4)ccc(Cl)c3F)c[n+]2[O-])c1

- half-life [1]: > 3.08 h
- half-life [2]: 2.33 h
Structure (SMILES): Cn1nncc1-c1cnn([C@H](Cc2ccn(C(F)F)n2)c2ccc(-c3c(-n4cc(C(F)(F)F)nn4)ccc(Cl)c3F)c[n+]2[O-])c1

- half-life [1]: > 3.08 h
- half-life [2]: 2.42 h
Structure (SMILES): Cn1nncc1-c1cnn([C@H](CCOC(F)F)c2ccc(-c3c(-n4cc(C(F)(F)F)nn4)ccc(Cl)c3F)c[n+]2[O-])c1

- half-life [1]: > 3 h
- half-life [2]: > 3 h
Structure (SMILES): Cn1nncc1-c1cnn([C@H](CC2CC2)c2ccc(-c3c(-n4cnnn4)ccc(Cl)c3F)c[n+]2[O-])c1

- half-life [1]: 0.9 h
- half-life [2]: 0.783 h
Structure (SMILES): COCC[C@H](c1ccc(-c2c(-n3cc(Cl)nn3)ccc(Cl)c2F)c[n+]1[O-])n1cc(-c2cnnn2C)cn1
